Experimental data as given in ChEMBL document CHEMBL5725928, “Substituted 4,5,6,7-tetrahydropyrazolo[1,5-A]pyrazine derivatives as casein kinase 1 D/E inhibitors” (2017).

Molecular target: Casein kinase I isoform epsilon (Homo sapiens, UniProt P49674)
Assay: Kinase Assay: The kinase assay was performed in V-bottom 384-well plates. The final assay volume was 30 μl prepared from 15 μl additions of enzyme, substrates (fluoresceinated peptide FL-AHA-KRRRAL-PSER-VASLPGL-OH and ATP) and test compounds in assay buffer (20 mM HEPES pH 7.4, 30 mM MgCl2, 0.015% Brij35 and 4 mM DTT). The reaction was incubated at room temperature for 22 hours and terminated by adding 45 μl of 35 mM EDTA to each sample. The reaction mixture was analyzed on the Caliper LABCHIP®3000 (Caliper, Hopkinton, Mass.) by electrophoretic separation of the unphosphorylated substrate and phosphorylated product. […] The final concentration of reagents in the assay were 200 pM CK1ε or CK1δ, 50 μM ATP, 1.5 μM FL-AHA-KRRRAL-PSER-VASLPGL-OH, and 1.6% DMSO. Dose response curves were generated to determine the concentration required to inhibit 50% of the kinase activity (IC50). Compounds were dissolved at 10 mM in dimethylsulfoxide (DMSO) and evaluated at eleven concentrations. IC50 values were derived by non-linear regression analysis.

Chain of Casein kinase I isoform epsilon (P49674 whole entry, canonical isoform): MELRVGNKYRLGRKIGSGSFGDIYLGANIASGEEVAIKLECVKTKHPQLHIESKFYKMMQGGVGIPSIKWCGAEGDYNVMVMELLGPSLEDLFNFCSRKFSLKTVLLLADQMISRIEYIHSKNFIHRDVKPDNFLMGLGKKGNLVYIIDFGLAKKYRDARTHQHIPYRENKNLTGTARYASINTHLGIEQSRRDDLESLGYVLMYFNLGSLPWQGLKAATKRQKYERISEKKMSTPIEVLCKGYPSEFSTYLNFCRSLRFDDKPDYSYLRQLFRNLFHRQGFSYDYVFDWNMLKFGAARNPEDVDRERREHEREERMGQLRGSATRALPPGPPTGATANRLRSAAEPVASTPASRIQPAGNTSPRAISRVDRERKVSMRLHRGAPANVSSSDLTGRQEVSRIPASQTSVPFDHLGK

Compound	IC50
Cc1nc(-c2ccc(NC(=O)N3CCn4nc(-c5ccc(F)c(Cl)c5)c(C(N)=O)c4C3)cc2)cs1	< 10 nM
N#Cc1ccc(NC(=O)N2CCn3nc(-c4cccc(Cl)c4)c(C(N)=O)c3C2)cc1N1CCOCC1	< 10 nM
NC(=O)c1c(-c2ccc(F)c(Cl)c2)nn2c1CN(C(=O)Nc1ccc3c(c1)S(=O)(=O)C=C3)CC2	< 10 nM
Cc1ncc(-c2ccc(NC(=O)N3CCn4nc(-c5cccc(F)c5)c(C(N)=O)c4C3)cc2)o1	< 10 nM
Cc1nc(-c2ccc(NC(=O)N3CCn4nc(-c5cccc(F)c5)c(C(N)=O)c4C3)cc2)cs1	< 10 nM
COc1cccc(-c2nn3c(c2C(N)=O)CN(C(=O)Nc2ccc(C#N)cc2)CC3)c1	< 10 nM
N#Cc1ccc(NC(=O)N2CCn3nc(-c4cnc(F)c(Cl)c4)c(C(N)=O)c3C2)cc1C(F)(F)F	< 10 nM
NC(=O)c1c(-c2cccc(F)c2)nn2c1CN(C(=O)NC1C3CC4CC(C3)CC1C4)CC2 (stereo not drawn)	< 10 nM

Next, values leading:

IC50	Compound
< 10 nM	NC(=O)c1c(-c2ccc(F)c(Cl)c2)nn2c1CN(C(=O)Nc1cc(F)cc(C(F)(F)F)c1)CC2
< 10 nM	NC(=O)c1c(-c2cc(F)cc(Cl)c2)nn2c1CN(C(=O)Nc1cc(F)cc(C(F)(F)F)c1)CC2
< 10 nM	NC(=O)c1c(-c2cccc(F)c2)nn2c1CN(C(=O)Nc1cc(Cl)cc(Cl)c1)CC2
< 10 nM	NC(=O)c1c(-c2ccc(Cl)c(F)c2)nn2c1CN(C(=O)Nc1ccc(Cl)c(Cl)c1)CC2
< 10 nM	NC(=O)c1c(-c2ccc(F)c(Cl)c2)nn2c1CN(C(=O)Nc1ccc(F)cc1)CC2
